Source: patent publication US7749985B2, “Acyloxyalkyl carbamate prodrugs, methods of synthesis and use” (XenoPort, Inc., priority 2006, dated 2010)

Columns and labels:
[1] = animal models (Merino et al., Biopharm. Drug. Disp. 1989); cited from earlier work
[2] = pH-Dependent Stability of prodrugs in aqueous buffers; assay type: physicochemical; conditions: pH 2 to pH 8, 37° C.
Description: (§1) The stabilities of prodrugs were evaluated in one or more in vitro systems using a variety of tissue preparations following methods known in the art. The chemical stability of prodrugs in aqueous buffers at a pH of 2.0, 7.4, and 8.0 were also measured. Tissues were obtained from commercial sources (e.g., Pel-Freez Biologicals, Rogers, Ark., or GenTest Corporation, Woburn, Mass.). Experimental conditions used for the in vitro studies are described in Table 1. Each preparation was incubated with test compound at 37° C. for one hour. Aliquots (50 μL) were removed at 0, 30, and 60 min and quenched with 0.1% trifluoroacetic acid in acetonitrile. Samples were then centrifuged and analyzed by LC/MS/MS. Stability of prodrugs towards specific enzymes (e.g., peptidases, etc.) was also assessed in vitro by incubation with the purified enzyme.
pH-Dependent Stability: The long-term pH-dependent stability of tranexamic acid prodrug at 37° C. was measured by LC/MS/MS at five different representative pH values from pH 2.0 to pH 8.0 was determined. The test concentration was 5 μM. The amount of remaining prodrug and the amount of tranexamic acid released from the prodrug was determined at 0 hour and after 24 hours.

[3] = Enzymatic cleavage of prodrugs in vitro (tissue preparations of Table 1); assay type: in vitro ADME; conditions: in the presence of the tissue preparations, 37° C.
Description: as §1
Pancreatin Stability: Stability studies were conducted by incubating prodrug (5 μM) with 1% (w/v) pancreatin (Sigma, P-1625, from porcine pancreas) in 0.025 M Tris buffer containing 0.5 M NaCl (pH 7.5) at 37° C. for 60 min. The reaction was stopped by addition of 2 volumes of methanol. After centrifugation at 14,000 rpm for 10 min, the supernatant was removed and analyzed by LC/MS/MS.
Caco-2 Homogenate S9 Stability: Caco-2 cells were grown for 21 days prior to harvesting. Culture medium was removed and cell monolayers were rinsed and scraped off into ice-cold 10 mM sodium phosphate/0.15 M potassium chloride, pH 7.4. Cells were lysed by sonication at 4° C. using a probe sonicator. Lysed cells were then transferred into 1.5 mL centrifuge vials and centrifuged at 9,000 g for 20 min at 4° C. The resulting supernatant (Caco-2 cell homogenate S9 fraction) was aliquoted into 0.5 mL vials and stored at −80° C. until used.
For stability studies, prodrug (5 μM) was incubated in Caco-2 homogenate S9 fraction (0.5 mg protein per mL) for 60 min at 37° C. Concentrations of intact prodrug and released tranexamic acid were determined at zero time and 60 min using LC/MS/MS.

Structure (SMILES)	stability from pH 2 to pH 8 [2]	absorption following administration into the colon [1]	hydrolysis to release the corresponding 3-aminopropylphosphinic acid analog [3]
NCC(CC(=O)O)c1ccc(Cl)cc1 (racemic) [Baclofen, (±)-4-Amino-3-(4-chlorophenyl)butanoic acid]	–	poorly absorbed	–
CCCCP(=O)(O)CCCNC(=O)OC(OC(=O)C(C)C)C(C)C (centres unmarked) [39/40, 3-{[1-isobutanoyloxyisobutoxy]carbonylamino}propyl(n-butyl)phosphinic acid]	good stability	–	hydrolyzed to release the corresponding 3-aminopropylphosphinic acid analogs
CCCCP(=O)(O)CCCNC(=O)OCOC(=O)C(C)C [Compound 35, 3-{[Isobutanoyloxymethoxy]carbonylamino}propyl(n-butyl)phosphinic Acid]	good stability	–	hydrolyzed to release the corresponding 3-aminopropylphosphinic acid analogs

Now from value to compound, other results behind:

stability from pH 2 to pH 8 [2]	Structure (SMILES)	absorption following administration into the colon [1]	hydrolysis to release the corresponding 3-aminopropylphosphinic acid analog [3]
good stability	CCCCP(=O)(O)CCCNC(=O)OC(C)OC(=O)C(C)C (centres unmarked) [Compound 31, 3-{[1-Isobutanoyloxyethoxy]carbonylamino}propyl(n-butyl)phosphinic Acid]	–	hydrolyzed to release the corresponding 3-aminopropylphosphinic acid analogs
good stability	CCCCP(=O)(O)CCCNC(=O)OC(C)OC(=O)c1ccccc1 (centres unmarked) [Compound 211, 3-{[1-Benzoyloxyethoxy]carbonylamino}propyl(n-butyl)phosphinic Acid]	–	hydrolyzed to release the corresponding 3-aminopropylphosphinic acid analogs
good stability	CCCCP(=O)(O)CCCNC(=O)OCOC(=O)c1ccccc1 [Compound 212, 3-{[1-Benzoyloxymethoxy]carbonylamino}propyl(n-butyl)phosphinic Acid]	–	hydrolyzed to release the corresponding 3-aminopropylphosphinic acid analogs
